Measurements: patent US7469185B2, “Primary rat hepatocyte toxicity modeling” (Ocimum Biosolutions, Inc., priority 2002, dated 2008)

Assays:
[1] = tested on: primary rat hepatocytes; assay: Microarray gene expression analysis (Affymetrix rat array) of toxin-exposed hepatocytes, with linear discriminant score; assay type: cell-based; settings: 24 hrs
Protocol: Identification of toxicity markers was performed by microarray analysis and by the AlamarBlue® assay, a classical measure of cytotoxicity. The AlamarBlue® assay was performed in triplicate.
The source of the primary rat hepatocytes was Sprague Dawley Outbred CDs Rats (CRL:CD®[SD] IGS BR, Charles River Laboratories). […] Primary rat hepatocytes were received the day after the cells were removed from the animals. After arrival, the cells, the cells were incubated overnight (˜15 hrs) before the toxin was added to the cultures. […] Toxin or vehicle was administered to hepatocyte cultures as follows. For each treatment, i.e., vehicle alone, vehicle+toxin at low dose, or vehicle+toxin at high dose, cells were harvested after 3, 6 and 24-hour incubations with the toxin solution or with the vehicle.
More than 10^7 cells are typically prepared for each sample. RNA was collected at 3, 6 and 24 hours following addition of the toxin according to the following procedure.
Each flask contained ˜10-20 million cells. The contents of each flask were mixed vigorously for one minute with a vortex mixer and then aspirated up and down 5 times with a pipette. The contents of each flask (˜12 ml each) was collected into a 50 ml conical polypropylene tissue culture tube (Falcon), snap frozen in liquid nitrogen and stored at ≦−86° C.
Microarray sample preparation was conducted with minor modifications, following the protocols set forth in the Affymetrix GeneChip® Expression Analysis Manual. Frozen cells were ground to a powder using a Spex Certiprep 6800 Freezer Mill. Total RNA was extracted with Trizol (GibcoBRL) utilizing the manufacturer's protocol. […] Double stranded cDNA was generated from mRNA using the SuperScript Choice system (GibcoBRL). First strand cDNA synthesis was primed with a T7-(dT24) oligonucleotide. The cDNA was phenol-chloroform extracted and ethanol precipitated to a final concentration of […]. From 2 μg of cDNA, cRNA was synthesized using Ambion's T7 MegaScript in vitro Transcription Kit.
To biotin label the cRNA, nucleotides Bio-11-CTP and Bio-16-UTP (Enzo Diagnostics) were added to the reaction. Following a 37° C. incubation for six hours, impurities were removed from the labeled cRNA following the RNeasy Mini kit protocol (Qiagen). cRNA was fragmented (fragmentation buffer consisting of 200 mM Tris-acetate, pH 8.1, 500 mM KOAc, 150 mM MgOAc) for thirty-five minutes at 94° C. Following the Affymetrix protocol, 55 μg of fragmented cRNA was hybridized on the Affymetrix rat array set for twenty-four hours at 60 rpm in a 45° C. hybridization oven. The chips were washed and stained with Streptavidin Phycoerythrin (SAPE) (Molecular Probes) in Affymetrix fluidics stations. To amplify staining, SAPE solution was added twice with an anti-streptavidin biotinylated antibody (Vector Laboratories) staining step in between. Hybridization to the probe arrays was detected by fluorometric scanning (Hewlett Packard Gene Array Scanner). Data was analyzed using Affymetrix GeneChip® version 3.0 and Expression Data Mining Tool (EDMT) software (version 1.0), S-Plus, and the GeneExpress® software system.
Each gene is identified by its Gene Logic identification number and can be cross-referenced to a gene name and representative SEQ ID NO. in Table 1.

[2] = tested on: dogs; settings: dog, in vivo; cited from earlier work

## Cl.Nc1nc2c(Cc3ccsc3)c[nH]c2c(=O)[nH]1.O [CI-1000, 4H-pyrrolo:3,2-d:pyrimidin-4-one, 2-amino-3,5-dihydro-7-(3-thienylmethyl)-monohydrochloride monohydrate]
[1]; GLGC ID NO. 108
  Mean Tox: 773.3800
[1]; GLGC ID NO. 573
  Mean Tox: 8.6367
[1]; GLGC ID NO. 574
  Mean Tox: 4432.0900
[1]; GLGC ID NO. 798
  Mean Tox: 128.0433
[1]; GLGC ID NO. 1348
  Mean Tox: 71.9967
[1]; GLGC ID NO. 1378
  Mean Tox: 98.1567
[1]; GLGC ID NO. 1570
  Mean Tox: 1078.9433
[1]; GLGC ID NO. 1571
  Mean Tox: 1228.2500
[1]; GLGC ID NO. 1728
  Mean Tox: 390.6900
[1]; GLGC ID NO. 1798
  Mean Tox: 347.1167
[1]; GLGC ID NO. 2250
  Mean Tox: 3776.5600
[1]; GLGC ID NO. 2267
  Mean Tox: 415.0967
[1]; GLGC ID NO. 2382
  Mean Tox: 33.0133
[1]; GLGC ID NO. 2909
  Mean Tox: 422.4233
[1]; GLGC ID NO. 2911
  Mean Tox: 39.1667
[1]; GLGC ID NO. 2933
  Mean Tox: 16.1500
[1]; GLGC ID NO. 3246
  Mean Tox: 236.8700
[1]; GLGC ID NO. 3501
  Mean Tox: 61.2333
[1]; GLGC ID NO. 3631
  Mean Tox: 235.6533
[1]; GLGC ID NO. 4636
  Mean Tox: 424.3433
[1]; GLGC ID NO. 4650
  Mean Tox: 398.0633
[1]; GLGC ID NO. 5044
  Mean Tox: 161.4467
[1]; GLGC ID NO. 5258
  Mean Tox: 68.1000
[1]; GLGC ID NO. 5496
  Mean Tox: 49.0667
[1]; GLGC ID NO. 5615
  Mean Tox: 127.1533
[1]; GLGC ID NO. 5899
  Mean Tox: 33.5000
[1]; GLGC ID NO. 6033
  Mean Tox: 72.8967
[1]; GLGC ID NO. 6224
  Mean Tox: 150.6700
[1]; GLGC ID NO. 6291
  Mean Tox: 87.3167
[1]; GLGC ID NO. 6343
  Mean Tox: 51.9167
[1]; GLGC ID NO. 6717
  Mean Tox: 59.7300
[1]; GLGC ID NO. 6996
  Mean Tox: 165.6633
[1]; GLGC ID NO. 7926
  Mean Tox: 49.1133
[1]; GLGC ID NO. 8395
  Mean Tox: 10.1200
[1]; GLGC ID NO. 9309
  Mean Tox: 142.4767
[1]; GLGC ID NO. 9500
  Mean Tox: 66.0900
[1]; GLGC ID NO. 9845
  Mean Tox: 126.4867
[1]; GLGC ID NO. 10138
  Mean Tox: 43.7667
[1]; GLGC ID NO. 10544
  Mean Tox: 702.1267
[1]; GLGC ID NO. 10920
  Mean Tox: −1.0367
[1]; GLGC ID NO. 10986
  Mean Tox: 12.0067
[1]; GLGC ID NO. 11610
  Mean Tox: 570.7167
[1]; GLGC ID NO. 12563
  Mean Tox: 634.3933
[1]; GLGC ID NO. 12580
  Mean Tox: 37.5533
[1]; GLGC ID NO. 13169
  Mean Tox: 173.3367
[1]; GLGC ID NO. 13283
  Mean Tox: 44.9933
[1]; GLGC ID NO. 13346
  Mean Tox: 474.6867
[1]; GLGC ID NO. 13563
  Mean Tox: 194.5233
[1]; GLGC ID NO. 13614
  Mean Tox: 51.4367
[1]; GLGC ID NO. 13919
  Mean Tox: 64.7367
[1]; GLGC ID NO. 14521
  Mean Tox: 198.1933
[1]; GLGC ID NO. 14934
  Mean Tox: 171.4667
[1]; GLGC ID NO. 15087
  Mean Tox: 279.6733
[1]; GLGC ID NO. 15205
  Mean Tox: 136.0033
[1]; GLGC ID NO. 15403
  Mean Tox: 546.1933
[1]; GLGC ID NO. 15663
  Mean Tox: 575.4367
[1]; GLGC ID NO. 15685
  Mean Tox: 1989.9867
[1]; GLGC ID NO. 15925
  Mean Tox: 154.8867
[1]; GLGC ID NO. 16006
  Mean Tox: 341.7733
[1]; GLGC ID NO. 16024
  Mean Tox: 520.0167
[1]; GLGC ID NO. 16025
  Mean Tox: 313.1433
[1]; GLGC ID NO. 16164
  Mean Tox: 1717.2267
[1]; GLGC ID NO. 16947
  Mean Tox: 147.5900
[1]; GLGC ID NO. 17115
  Mean Tox: −3.3700
[1]; GLGC ID NO. 17365
  Mean Tox: 113.6667
[1]; GLGC ID NO. 17549
  Mean Tox: 1296.6000
[1]; GLGC ID NO. 17956
  Mean Tox: 167.2833
[1]; GLGC ID NO. 18278
  Mean Tox: 30.2633
[1]; GLGC ID NO. 18383
  Mean Tox: 210.0600
[1]; GLGC ID NO. 18498
  Mean Tox: 412.3833
[1]; GLGC ID NO. 18524
  Mean Tox: 233.6633
[1]; GLGC ID NO. 18727
  Mean Tox: 1450.8800
[1]; GLGC ID NO. 18777
  Mean Tox: 195.2400
[1]; GLGC ID NO. 19371
  Mean Tox: 24.8700
[1]; GLGC ID NO. 20586
  Mean Tox: 44.1067
[1]; GLGC ID NO. 20664
  Mean Tox: 373.3533
[1]; GLGC ID NO. 20701
  Mean Tox: 78.4500
[1]; GLGC ID NO. 20755
  Mean Tox: 2569.4500
[1]; GLGC ID NO. 20801
  Mean Tox: 441.4867
[1]; GLGC ID NO. 20939
  Mean Tox: 971.5300
[1]; GLGC ID NO. 21064
  Mean Tox: 291.1633
[1]; GLGC ID NO. 21154
  Mean Tox: 116.8600
[1]; GLGC ID NO. 21747
  Mean Tox: 330.9267
[1]; GLGC ID NO. 21794
  Mean Tox: 5.9200
[1]; GLGC ID NO. 22102
  Mean Tox: 633.5467
[1]; GLGC ID NO. 22310
  Mean Tox: 316.3067
[1]; GLGC ID NO. 22576
  Mean Tox: 484.4533
[1]; GLGC ID NO. 22915
  Mean Tox: 409.8567
[1]; GLGC ID NO. 22994
  Mean Tox: 83.8300
[1]; GLGC ID NO. 23166
  Mean Tox: 758.8567
[1]; GLGC ID NO. 23250
  Mean Tox: 317.7900
[1]; GLGC ID NO. 23521
  Mean Tox: 60.4533
[1]; GLGC ID NO. 23630
  Mean Tox: 789.8200
[1]; GLGC ID NO. 23738
  Mean Tox: 290.9200
[1]; GLGC ID NO. 23860
  Mean Tox: 310.3067
[1]; GLGC ID NO. 24501
  Mean Tox: 2075.2267
[1]; GLGC ID NO. 24554
  Mean Tox: 25.3833
[1]; GLGC ID NO. 24814
  Mean Tox: 389.9067
[1]; GLGC ID NO. 25594
  Mean Tox: 700.5833
[1]; GLGC ID NO. 26184
  Mean Tox: 126.0933
[2]
  serum ALT levels: increased
